From US9290541B2, “TCL1 peptides for immunotherapy” (Board of Regents, The University of Texas System, priority 2011, dated 2016)

Assays:
[1] = test system: CD4+ and CD8+ T cells; test: Intracellular cytokine assay (IFN-γ) of peptide-stimulated T cell lines; type: cell-based, human; details: T cell lines from HLA-A2+ normal donors
Protocol: FIGS. 3A-E: TCL1-specific cytotoxic T cells can be generated from normal donors. (FIG. 3A) PBMCs from HLA-A2^+ normal donors were stimulated with overlapping 15-mer peptides spanning the entire length of the TCL1 protein (see Table 2). T cells from each condition were washed and incubated with autologous CD3-depleted PBMC as antigen-presenting cells (APC) in the presence or absence of the corresponding peptide. After 18 hours, the production of IFN-γ was determined in the supernatants by ELISA. Asterisk indicates significant IFN-γ production compared with control (P<0.05). Representative data from one of three normal donors tested is shown. (FIG. 3B) T cell lines generated from HLA-A2^+ normal donors using TCL165-79 peptide were incubated with APC in the presence or absence of the TCL165-79 peptide or control HIV Gag77-85 peptide, and intracellular cytokine assay was performed. […] IFN-γ production was determined as in (FIG. 3A). […]
Flow cytometry. […] After two washes, samples were acquired on a FACS Calibur (BD Biosciences) and analyzed using Cell Quest Pro (BD Biosciences) or FlowJo (Tree Star, Inc., Ashland, Oreg.) software. […] For tetramer staining, PE-conjugated TCL171-78 tetramer or HIV Gag77-85 tetramer and FITC-conjugated mouse anti-human CD8 antibody were mixed with the cells in 50 μl volume for 30 minutes at room temperature, washed twice, and analyzed by a flow cytometry.

[2] = test system: T2 cells; test: 4-hour 51Cr-release cytotoxicity assay with peptide-pulsed T2 cells; type: cell-based, human
Protocol: FIGS. 3A-E: TCL1-specific cytotoxic T cells can be generated from normal donors. (FIG. 3A) PBMCs from HLA-A2^+ normal donors were stimulated with overlapping 15-mer peptides spanning the entire length of the TCL1 protein (see Table 2). T cells from each condition were washed and incubated with autologous CD3-depleted PBMC as antigen-presenting cells (APC) in the presence or absence of the corresponding peptide. After 18 hours, the production of IFN-γ was determined in the supernatants by ELISA. Asterisk indicates significant IFN-γ production compared with control (P<0.05). Representative data from one of three normal donors tested is shown. (FIG. 3B) T cell lines generated from HLA-A2^+ normal donors using TCL165-79 peptide were incubated with APC in the presence or absence of the TCL165-79 peptide or control HIV Gag77-85 peptide, and intracellular cytokine assay was performed. The percentage of CD4^+ and CD8^+ T cells producing IFN-γ are shown. (FIG. 3C) TCL165-79 peptide-specific T cells were incubated with T2 cells or EBV-transformed B lymphoblastoid cell lines (IHW1003, IHW1019, IHW1089, and IHW1135) mismatched at their MHC class I locus in the presence of the TCL165-79 peptide or control HIV Gag77-85 peptide. IFN-γ production was determined as in (FIG. 3A). The HLA-A alleles for each of the cell lines are shown. (FIG. 3D, FIG. 3E) A 4-hour ^51Cr-release cytotoxicity assay was performed. TCL165-79 peptide-specific T cells were incubated with T2 cells alone or T2 cells pulsed with TCL165-79 peptide or control HIV Gag77-85 peptide, at various effector:target ratios. For MHC blocking assay, an effector:target ratio of 20:1 was used in the presence or absence of isotype control antibody or blocking antibodies against MHC class I, MHC class II, HLA-A2, or HLA-B and C. All cytotoxicity assays were performed in triplicate wells and mean and standard deviation are shown.
FIGS. 4A-D: TCL171-78 is the minimal HLA-A*0201-binding peptide. (FIG. 4A) TCL165-79 peptide-specific T cells derived from HLA-A2^+ normal donors were incubated in the presence or absence of T2 cells and TCL165-79 derived truncated peptides (SEQ ID NOS:1-2; SEQ ID NOS:12-17; SEQ ID NOS:3-11; and SEQ ID NO:18) Flu matrix peptide (FMP58-66) and Gag77-85 peptide were used as controls. After 18 hours, the production of IFN-γ was determined in the supernatants by ELISA. (FIG. 4B) T2 cells were incubated with TCL165-79-derived truncated peptides (SEQ ID NOS:1-2; SEQ ID NOS:12-17; SEQ ID NOS:3-11; and SEQ ID NO:18), and the HLA-A2 binding affinity of each peptide was determined by flow cytometry. The T2 binding index was calculated as described in Materials and Methods. […] (FIG. 4D) TCL165-79 peptide-specific CD8^+ T cells or irrelevant T-cell line were stained with TCL171-78 or HIV Gag77-85 tetramers and analyzed by flow cytometry. […]
FIGS. 6A-E: TCL171-78 peptide-specific T cells can be generated from lymphoma patients. (FIG. 6A) PBMC and tumor-infiltrating lymphocytes (TILs) derived from HLA-A2^+ patients with chronic lymphocytic leukemia (CLL) or follicular lymphoma (FL) were stimulated in vitro with TCL165-79 After five stimulations, IFN-γ production in response to TCL165-79 peptide was determined as in FIG. 3A. […]

## TQIGPSLLPIMWQLY [TCL165-79]
[1]
  IFN-γ production by CD4+ and CD8+ T cells in response to peptide: CD8^+ but not CD4^+ T cells produced IFN-γ
[2]; T cells from CLL and FL patients
  lysis of peptide-pulsed T2 cells by patient-derived T cells: at high efficiency
[2]; normal donor-derived T cells
  lysis of peptide-pulsed T2 cells by TCL165-79 peptide-reactive T cells: significant lysis
